Where a name gives a salt, the structure may show the parent alone.
Target: histidine-tagged recombinant human TrkA, cytoplasmic domain (Homo sapiens (Human), UniProt P04629)
Experiment: TrkA ELISA Assay
Format: biochemical
Settings: 2.5 nM TrkA, 500 μM ATP, 25 minutes; read-out: TrkA Elisa Enzyme IC50
Description: An enzyme-linked immunosorbant assay (ELISA) was used to assess TrkA kinase activity in the presence of inhibitors. Immulon 4HBX 384-well microtiter plates (Thermo part #8755) were coated with a 0.025 mg/mL solution of poly (Glu, Ala, Tyr; 6:3:1; Sigma P3899). Various concentrations of test compound, 2.5 nM TrkA (Invitrogen Corp., histidine-tagged recombinant human TrkA, cytoplasmic domain), and 500 μM ATP were incubated for 25 minutes at ambient temperature in the coated plates while shaking. The assay buffer consisted of 25 mM MOPS pH 7.5, 0.005% (v/v) Triton X-100 and 5 mM MgCl2. The reaction mixture was removed from the plate by washing with PBS containing 0.1% (v/v) Tween 20. The phosphorylated reaction product was detected using 0.2 μg/mL of a phosphotyrosine specific monoclonal antibody (clone PY20) conjugated to horseradish peroxidase in conjunction with the TMB Peroxidase Substrate System (KPL). After the addition of 1M phosphoric acid, the chromogenic substrate color intensity was quantitated via absorbance at 450 nm. IC50 values were calculated using either a 4 or 5-parameter logistic curve fit.

Chain of histidine-tagged recombinant human TrkA, cytoplasmic domain (P04629 440-796): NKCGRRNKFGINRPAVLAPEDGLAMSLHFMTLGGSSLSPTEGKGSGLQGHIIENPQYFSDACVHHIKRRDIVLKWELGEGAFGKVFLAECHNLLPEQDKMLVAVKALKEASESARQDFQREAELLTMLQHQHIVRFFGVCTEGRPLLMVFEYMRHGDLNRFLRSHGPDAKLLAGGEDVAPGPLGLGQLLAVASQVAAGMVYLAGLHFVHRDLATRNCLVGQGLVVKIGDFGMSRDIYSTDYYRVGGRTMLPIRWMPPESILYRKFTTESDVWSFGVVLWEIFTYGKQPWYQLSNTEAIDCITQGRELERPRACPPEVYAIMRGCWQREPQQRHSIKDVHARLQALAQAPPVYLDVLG

| Compound | IC50 [µM] |
| --- | --- |
| O=C(Nc1cnn2ccc(N3CCC[C@@H]3c3cc(F)ccc3F)nc12)N1CCOCC1 [Example 13, (R)—N-(5-(2-(2,5-difluorophenyl)pyrrolidin-1-yl)pyrazolo[1,5-a]pyrimidin-3-yl)morpholine-4-carboxamide] | 0.0322 |
| CC1(c2cccc(F)c2)CCCN1c1ccn2ncc(NC(=O)N3CC(O)C3)c2n1 (centres unmarked) [Example 10, N-(5-(2-(3-fluorophenyl)-2-methylpyrrolidin-1-yl)pyrazolo[1,5-a]pyrimidin-3-yl)-3-hydroxyazetidine-1-carboxamide] | 0.188 |
| COc1ccc(F)cc1[C@H]1CCCN1c1ccn2ncc(NC(=O)N3CC[C@H](O)C3)c2n1 [Example 90, (S)—N-(5-((R)-2-(5-fluoro-2-methoxyphenyl)pyrrolidin-1-yl)pyrazolo[1,5-a]pyrimidin-3-yl)-3-hydroxypyrrolidine-1-carboxamide] | 0.0113 |
| Cc1cnc(C(=O)Nc2cnn3ccc(N4CCC[C@@H]4c4cccc(F)c4)nc23)cn1 [Example 82, (R)—N-(5-(2-(3-fluorophenyl)pyrrolidin-1-yl)pyrazolo[1,5-a]pyrimidin-3-yl)-5-methylpyrazine-2-carboxamide] | 0.0066 |
| O=C(Nc1cnn2ccc(N3CCC[C@@H]3c3cc(F)ccc3Cl)nc12)N1CCC[C@H](O)C1 [Example 44, (S)—N-(5-((R)-2-(2-chloro-5-fluorophenyl)pyrrolidin-1-yl)pyrazolo[1,5-a]pyrimidin-3-yl)-3-hydroxypiperidine-1-carboxamide] | 0.0134 |
| Cn1ccc(C(=O)Nc2cnn3ccc(N4CCC[C@@H]4c4cccc(F)c4)nc23)cc1=O [Example 70, (R)—N-(5-(2-(3-fluorophenyl)pyrrolidin-1-yl)pyrazolo[1,5-a]pyrimidin-3-yl)-1-methyl-2-oxo-1,2-dihydropyridine-4-carboxamide] | 0.0556 |
| CCN1CCN(C(=O)Nc2cnn3ccc(N4CCC[C@@H]4c4cc(F)ccc4F)nc23)CC1 [Example 27, (R)—N-(5-(2-(2,5-difluorophenyl)pyrrolidin-1-yl)pyrazolo[1,5-a]pyrimidin-3-yl)-4-ethylpiperazine-1-carboxamide] | 0.107 |
| CC1(C(=O)Nc2cnn3ccc(N4CCC[C@@H]4c4cc(F)ccc4Cl)nc23)CCNCC1 [Example 49, (R)—N-(5-(2-(2-chloro-5-fluorophenyl)pyrrolidin-1-yl)pyrazolo[1,5-a]pyrimidin-3-yl)-4-methylpiperidine-4-carboxamide hydrochloride] | 0.0292 |
| O=C(Nc1cnn2ccc(N3CCC[C@@H]3c3cc(F)ccc3F)nc12)C(=O)NC1CC1 [Example 100, (R)—N^1-cyclopropyl-N2-(5-(2-(2,5-difluorophenyl)pyrrolidin-1-yl)pyrazolo[1,5-a]pyrimidin-3-yl)oxalamide] | 0.0158 |
| O=C(Nc1cnn2ccc(N3CCC[C@@H]3c3cc(F)ccc3F)nc12)C(=O)N1CC(O)C1 [Example 101, (R)—N-(5-(2-(2,5-difluorophenyl)pyrrolidin-1-yl)pyrazolo[1,5-a]pyrimidin-3-yl)-2-(3-hydroxyazetidin-1-yl)-2-oxo acetamide] | 0.0101 |
| Cc1ccc(C(=O)Nc2cnn3ccc(N4CCC[C@@H]4c4cccc(F)c4)nc23)cn1 [Example 78, (R)—N-(5-(2-(3-fluorophenyl)pyrrolidin-1-yl)pyrazolo[1,5-a]pyrimidin-3-yl)-6-methylnicotinamide] | 0.047 |
| CC1CN(C(=O)Nc2cnn3ccc(N4CCC[C@@H]4c4cc(F)ccc4F)nc23)CC(C)N1 (some centres unmarked) [Example 29] | 0.098 |
| O=C(Nc1cnn2ccc(N3CCC[C@@H]3c3cc(F)cc(Cl)c3)nc12)N1CC[C@H](O)C1 [Example 35, (S)—N-(5-((R)-2-(3-chloro-5-fluorophenyl)pyrrolidin-1-yl)pyrazolo[1,5-a]pyrimidin-3-yl)-3-hydroxypyrrolidine-1-carboxamide] | 0.0202 |
| O=C(Nc1cnn2ccc(N3CCC[C@@H]3c3cc(F)ccc3Cl)nc12)C1CNC1 [Example 47, (R)—N-(5-(2-(2-chloro-5-fluorophenyl)pyrrolidin-1-yl)pyrazolo[1,5-a]pyrimidin-3-yl)azetidine-3-carboxamide trifluoroacetate] | 0.19 |
| O=C(Nc1cnn2ccc(N3CCC[C@@H]3c3cc(F)ccc3Cl)nc12)N1CC[C@@H](O)C1 [Example 41, (R)—N-(5-((R)-2-(2-chloro-5-fluorophenyl)pyrrolidin-1-yl)pyrazolo[1,5-a]pyrimidin-3-yl)-3-hydroxypyrrolidine-1-carboxamide] | 0.0041 |
| O=C(Nc1cnn2ccc(N3CCC[C@@H]3c3cc(F)ccc3F)nc12)C(=O)N1CC[C@H](O)C1 [Example 102, N-(5-((R)-2-(2,5-difluorophenyl)pyrrolidin-1-yl)pyrazolo[1,5-a]pyrimidin-3-yl)-2-((S)-3-hydroxypyrrolidin-1-yl)-2-oxoacetamide] | 0.0128 |
| Cn1ccc(C(=O)Nc2cnn3ccc(N4CCC[C@@H]4c4cccc(F)c4)nc23)n1 [Example 73, (R)—N-(5-(2-(3-fluorophenyl)pyrrolidin-1-yl)pyrazolo[1,5-a]pyrimidin-3-yl)-1-methyl-1H-pyrazole-3-carboxamide] | 0.0085 |
| O=C(Nc1cnn2ccc(N3CCC[C@@H]3c3cc(F)ccc3F)nc12)C(=O)N1CCOCC1 [Example 103, (R)—N-(5-(2-(2,5-difluorophenyl)pyrrolidin-1-yl)pyrazolo[1,5-a]pyrimidin-3-yl)-2-morpholino-2-oxoacetamide] | 0.0824 |
| O=C(Nc1cnn2ccc(N3CCC[C@@H]3c3cc(F)ccc3C(F)F)nc12)N1CCC[C@H](O)C1 [Example 40, (S)—N-(5-((R)-2-(2-(difluoromethyl)-5-fluorophenyl)pyrrolidin-1-yl)pyrazolo[1,5-a]pyrimidin-3-yl)-3-hydroxypiperidine-1-carboxamide] | 0.0308 |

Now from value to compound:

| IC50 [µM] | Compound |
| --- | --- |
| 0.0124 | CC(C)(O)C(=O)Nc1cnn2ccc(N3CCC[C@@H]3c3cc(F)ccc3F)nc12 [Example 50, (R)—N-(5-(2-(2,5-difluorophenyl)pyrrolidin-1-yl)pyrazolo[1,5-a]pyrimidin-3-yl)-2-hydroxy-2-methylpropanamide] |
| 0.0207 | O=C(Nc1cnn2ccc(N3CCC[C@@H]3c3cc(F)ccc3F)nc12)N1CC(O)C1 [Example 1, (R)—N-(5-(2-(2,5-difluorophenyl)pyrrolidin-1-yl)pyrazolo[1,5-a]pyrimidin-3-yl)-3-hydroxyazetidine-1-carboxamide] |
| 0.0222 | CC(C)(C)NC(=O)Nc1cnn2ccc(N3CCC[C@@H]3c3cc(F)ccc3F)nc12 [Example 3, (R)-1-tert-butyl-3-(5-(2-(2,5-difluorophenyl)pyrrolidin-1-yl)pyrazolo[1,5-a]pyrimidin-3-yl)urea] |
| 0.0017 | O=C(Nc1cnn2ccc(N3CCC[C@@H]3c3cc(F)ccc3F)nc12)c1ccccn1 [Example 59, (R)—N-(5-(2-(2,5-difluorophenyl)pyrrolidin-1-yl)pyrazolo[1,5-a]pyrimidin-3-yl)picolinamide] |
| 0.0475 | CN(C)C(=O)C(=O)Nc1cnn2ccc(N3CCC[C@@H]3c3cc(F)ccc3F)nc12 [Example 97, (R)—N^1-(5-(2-(2,5-difluorophenyl)pyrrolidin-1-yl)pyrazolo[1,5-a]pyrimidin-3-yl)-N^2,N^2-dimethyloxalamide] |
| 0.0047 | O=C(O)C(=O)Nc1cnn2ccc(N3CCC[C@@H]3c3cc(F)ccc3F)nc12 [Example 105, (R)-2-(5-(2-(2,5-difluorophenyl)pyrrolidin-1-yl)pyrazolo[1,5-a]pyrimidin-3-ylamino)-2-oxoacetic acid] |
| 0.00765 | CNC(=O)C(=O)Nc1cnn2ccc(N3CCC[C@@H]3c3cc(F)ccc3F)nc12 [Example 98, (R)—N^1-(5-(2-(2,5-difluorophenyl)pyrrolidin-1-yl)pyrazolo[1,5-a]pyrimidin-3-yl)-N^2-methyloxalamide] |
| 0.00765 | COC(=O)C(=O)Nc1cnn2ccc(N3CCC[C@@H]3c3cc(F)ccc3F)nc12 [Example 104, (R)-methyl 2-(5-(2-(2,5-difluorophenyl)pyrrolidin-1-yl)pyrazolo[1,5-a]pyrimidin-3-ylamino)-2-oxoacetate] |
| 0.0153 | O=C(Nc1cnn2ccc(N3CCC[C@@H]3c3cccc(F)c3)nc12)c1cc[nH]n1 [Example 74, (R)—N-(5-(2-(3-fluorophenyl)pyrrolidin-1-yl)pyrazolo[1,5-a]pyrimidin-3-yl)-1H-pyrazole-3-carboxamide] |
| 0.0274 | O=C(Nc1cnn2ccc(N3CCC[C@@H]3c3cc(F)ccc3F)nc12)C1CC(O)C1 (stereo partly drawn) [Example 96, (R)—N-(5-(2-(2,5-difluorophenyl)pyrrolidin-1-yl)pyrazolo[1,5-a]pyrimidin-3-yl)-3-hydroxycyclobutanecarboxamide] |
| 0.0031 | Cc1cnc(C(=O)Nc2cnn3ccc(N4CCC[C@@H]4c4cc(F)ccc4F)nc23)cn1 [Example 58, (R)—N-(5-(2-(2,5-difluorophenyl)pyrrolidin-1-yl)pyrazolo[1,5-a]pyrimidin-3-yl)-5-methylpyrazine-2-carboxamide] |
| 0.0121 | CC(C)C(=O)Nc1cnn2ccc(N3CCC[C@@H]3c3cc(F)ccc3F)nc12 [Example 5, (R)—N-(5-(2-(2,5-difluorophenyl)pyrrolidin-1-yl)pyrazolo[1,5-a]pyrimidin-3-yl)isobutyramide] |
| 0.005 | O=C(Nc1ccccc1)Nc1cnn2ccc(N3CCC[C@@H]3c3cc(F)ccc3F)nc12 [Example 4, (R)-1-(5-(2-(2,5-difluorophenyl)pyrrolidin-1-yl)pyrazolo[1,5-a]pyrimidin-3-yl)-3-phenylurea] |

— patent US8865698B2, “Method of treatment using substituted pyrazolo[1,5-a]pyrimidine compounds” (Array BioPharma Inc., priority 2008, dated 2014)
